Reference: patent US9926275B2 (priority 2013, dated 2018)
Where two headings read alike, the source gives them in different places.

Experiments:
CB1 receptor [1] = target: T1, CB1 receptor (Homo sapiens, UniProt P21554); assay: DiscoveRx HitHunter cAMP XS+ assay in cAMP Hunter cell line, allosteric modulation of CP55,940 response; assay type: cell-based
Protocol: Once it was established that the cells were healthy and growing normally, cells were passaged from flasks using cell dissociation reagent buffer and seeded into white walled clear bottom 384-well microplates for compound profiling. For profiling, cells were seeded at a density of 10000 cells per well in a total volume of 20 μL and were allowed to adhere and recover overnight prior to compound addition. Cells were treated the following day using the protocols shown below. cAMP modulation was determined using the DiscoveRx HitHunter cAMP XS+ assay.
Media was aspirated from cells and replaced with 10 μL 1:1 HBSS/Hepes: cAMP XS+ Ab reagent. Agonist (CP55,940) dose curves were performed to determine the EC20 value for the testing with the compounds of the present technology. 5 μL of 4× agonist was added to each well with an equal concentration of vehicle present. EC20 agonist concentration was determined directly from agonist dose curve.
(§1) For allosteric determination, cells were preincubated with compound followed by agonist challenge at the EC20 concentration of the agonist. 5 μL of 4× compound was added to cells and incubated at 37° C. for 30 minutes. 5 μL of 4× EC20 agonist was added to cells and incubated at 37° C. for 30 minutes.
Signal Detection: After appropriate compound incubation, assay signal was generated through incubation with 20 μL cAMP XS+ED/CL lysis cocktail for one hour followed by incubation with 20 μL cAMP XS+EA reagent for three hours at room temperature. Microplates were read following signal generation with a PerkinElmer Envision™ instrument for chemiluminescent signal detection.
(§2) Data Analysis: Dose curves were plotted using GraphPad Prism or Activity Base. The percentage activity is calculated using the following formula: % Activity=100%×(1−(mean RLU of test sample−mean RLU of MAX control)/(mean RLU of vehicle control [EC20 for PAM]−mean RLU of MAXcontrol).
(§3) Agonist (CP55,940) dose curves were performed for the CNR1 PathHunter and cAMP Hunter cell lines. […] The cAMP assay was performed in the presence of 20 μM forskolin (EC80).
(§4) In Vitro Evaluation: The in vitro evaluation of the covalent allosteric modulators was performed using as described previously.

CB1 receptor [2] = target: T1, CB1 receptor; assay: β-arrestin recruitment in CNR1 PathHunter cell line, allosteric modulation of CP55,940 response; assay type: cell-based
Protocol: as §1, §2, §3, §4

rats [3] = assay type: in vivo
Protocol: (§5) GAT358 was assessed in two different behavioral tests, the Taste Reactivity (TR) Test and the Light Dark Emergence (LDE) Test. The TR Test is used to assess the possibility of a drug inducing nausea in rats as measured by conditioned gaping to infusion of a 0.01% saccharin solution previously paired with drug administration.
GAT358 was dissolved in a mixture of 4% DMSO, 1% Tween80, 1% Cremophor and 94% Saline (for doses of 5, 10 and 20 mg/kg) and injected at a volume of 3 ml/kg. Assessed was the vehicle (“Veh”), 10 and 20 mg/kg doses of GAT358 in the conditioned gaping model of nausea where rats are infused for 2 min with novel 0.01% saccharin followed immediately by an injection of the appropriate drug dose [Vehicle (n=6), GAT358-10 (n=8) and GAT358-20 (n=8)]. Seventy two hours following conditioning the rats were infused for 2 min with 0.01% saccharin during the drug free TR Test while their orofacial responses were videotaped for subsequent scoring. Further assessed was the Veh, 5 and 10 mg/kg of GAT358 in the LDE test [Veh (n=6), GAT358-5 (n=8) and GAT358-10 (n=8)]. Group assignment was counterbalanced based upon previous drug experience. The rats were administered the appropriate drug dose 45 min prior to being placed in the enclosed dark chamber that allowed access to an open field area where the lighting was 100 lux. The activity of the rat while in the LDE test for 5 min was tracked by Ethovision (Noldus Information Technology) and subsequently the duration of time spent in the open field and activity (distance travelled (cm)/amount of time(sec)) was analyzed.
Results (all analyses were conducted using a one way ANOVA): […]

rats [4] = assay: Light Dark Emergence (LDE) Test of anxiety; assay type: in vivo; settings: 5 or 10 mg/kg, p>0.05
Protocol: as §5
GAT358 was dissolved in a mixture of 4% DMSO, 1% Tween80, 1% Cremophor and 94% Saline (for doses of 5, 10 and 20 mg/kg) and injected at a volume of 3 ml/kg. Assessed was the vehicle (“Veh”), 10 and 20 mg/kg doses of GAT358 in the conditioned gaping model of nausea where rats are infused for 2 min with novel 0.01% saccharin followed immediately by an injection of the appropriate drug dose [Vehicle (n=6), GAT358-10 (n=8) and GAT358-20 (n=8)]. Seventy two hours following conditioning the rats were infused for 2 min with 0.01% saccharin during the drug free TR Test while their orofacial responses were videotaped for subsequent scoring. Further assessed was the Veh, 5 and 10 mg/kg of GAT358 in the LDE test [Veh (n=6), GAT358-5 (n=8) and GAT358-10 (n=8)]. […] The activity of the rat while in the LDE test for 5 min was tracked by Ethovision (Noldus Information Technology) and subsequently the duration of time spent in the open field and activity (distance travelled (cm)/amount of time(sec)) was analyzed. […]

[5] = Table 1, preincubation with compound, then CP55,940 challenge, 20 μM forskolin
[6] = Table 1, preincubation with compound, then CP55,940 challenge, 20 μM forskolin, read-out: cAMP EC50
[7] = Table 1, CP55,940 as agonist, read-out: β-arrestin EC50

T1 sequence (P21554 whole entry): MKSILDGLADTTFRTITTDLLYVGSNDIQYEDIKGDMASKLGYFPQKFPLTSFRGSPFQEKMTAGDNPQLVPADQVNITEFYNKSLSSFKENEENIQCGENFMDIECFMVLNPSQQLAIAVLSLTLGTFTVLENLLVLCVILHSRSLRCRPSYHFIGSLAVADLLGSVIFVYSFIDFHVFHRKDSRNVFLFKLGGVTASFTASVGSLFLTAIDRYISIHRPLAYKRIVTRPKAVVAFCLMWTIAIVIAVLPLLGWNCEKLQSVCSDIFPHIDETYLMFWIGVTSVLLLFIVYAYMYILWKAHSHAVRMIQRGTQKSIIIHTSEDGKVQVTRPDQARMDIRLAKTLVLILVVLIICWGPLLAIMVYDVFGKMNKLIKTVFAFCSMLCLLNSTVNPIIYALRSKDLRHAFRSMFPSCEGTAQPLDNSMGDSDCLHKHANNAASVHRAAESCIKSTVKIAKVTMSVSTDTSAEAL

Row | Compound | cAMP % inhibition (CB1 receptor [1]; [5]) [%] | EC50 (CB1 receptor [1]; [6]) [nM] | β-arrestin % inhibition (CB1 receptor [2]; Table 1, CP55,940 as agonist) [%] | EC50 (CB1 receptor [2]; [7]) [nM] | also measured
1 | O=c1c(Nc2ccc(Cl)cc2)c(Nc2cccc(-c3cccc(N4CCCC4)n3)c2)c1=O [Compound 38, 3-((4-Chlorophenyl)amino)-4-((3-(6-(pyrrolidin-1-yl)pyridin-2-yl)phenyl)amino)cyclobut-3-ene-1,2-dione] | 16 | > 10000 | 107 | 111 | total activity of rats during the drug-free test with saccharin vs vehicle (rats [3]; 10 mg/kg, Bonferroni p=0.006): significantly lower than the rats in the vehicle group; total activity of rats during the drug-free test with saccharin vs vehicle (rats [3]; 20 mg/kg, Bonferroni p=0.012): significantly lower than the rats in the vehicle group; conditioned gaping responses vs vehicle (rats [3]; 10 and 20 mg/kg, drug-free TR test 72 h after conditioning, 2 min saccharin infusion, p>0.05): did not result in the expression of conditioned gaping or total aversive responses that differed significantly from the vehicle group; total aversive responses (gaping, chin rubs and paw treads) vs vehicle (rats [3]; 10 and 20 mg/kg, drug-free TR test 72 h after conditioning, p>0.05): did not result in the expression of conditioned gaping or total aversive responses that differed significantly from the vehicle group; conditional ingestive responding to saccharin infusion (rats [3]; 10 and 20 mg/kg, drug-free TR test, p>0.05): did not alter conditional ingestive responding to saccharin infusion; time spent in the open field (rats [4]; 45 min before 5 min LDE test): did not significantly alter the time spent in the open field; activity of rats during the 5 min in the LDE test (rats [4]; 45 min before test): did not significantly alter
2 | O=C(Nc1cccc(-c2cccc(N3CCCC3)n2)c1)Nc1ccccc1C(F)(F)F [Compound 10g, 1-(3-(6-(Pyrrolidin-1-yl)pyridin-2-yl)phenyl)-3-(2-(trifluoromethyl)phenyl)urea] | 119 | 1160 | 123 | 2090 | –
3 | Cc1ccccc1NC(=O)Nc1cccc(-c2cccc(N3CCCC3)n2)c1 [Compound 10p, 1-(3-(6-(Pyrrolidin-1-yl)pyridin-2-yl)phenyl)-3-(o-tolyl)urea] | 97 | 1700 | 104 | 361 | –
4 | O=C(Nc1ccc(I)cc1)Nc1cccc(-c2cccc(N3CCCC3)n2)c1 [Compound 10b, 1-(4-Iodophenyl)-3-(3-(6-(pyrrolidin-1-yl)pyridin-2-yl)phenyl)urea] | 126 | 223 | 133 | 27 | –
5 | COc1ccc(NC(=O)Nc2cccc(-c3cccc(N4CCCC4)n3)c2)cc1 [Compound 10h, 1-(4-Methoxyphenyl)-3-(3-(6-(pyrrolidin-1-yl)pyridin-2-yl)phenyl)urea] | 97 | 1230 | 98 | 99 | –
6 | CN(C(=O)Nc1cccc(-c2cccc(N3CCCC3)n2)c1)c1ccc(Cl)cc1 [Compound 13a, 1-(4-Chlorophenyl)-1-methyl-3-(3-(6-(pyrrolidin-1-yl)pyridin-2-yl)phenyl)urea] | 17 | 1640 | 99 | 1020 | –
7 | O=C(Nc1cccc(Oc2ccccc2)c1)Nc1cccc(-c2cccc(N3CCCC3)n2)c1 [Compound 10l, 1-(3-Phenoxyphenyl)-3-(3-(6-(pyrrolidin-1-yl)pyridin-2-yl)phenyl)urea] | 57 | 2240 | 117 | 86 | –
8 | CCc1c(C(=O)NCCc2ccc(N3CCCCC3)cc2)[nH]c2ccc(N=C=S)cc12 [GAT100] | – | – | – | – | EC50 (CB1 receptor [1]; Table 2, covalent allosteric modulators, read-out: cAMP activity EC50 (nm)): 186 nM; Emax (CB1 receptor [1]; read-out: cAMP activity ECMax (%)): 89.4%; EC50 (CB1 receptor [2]; Table 2, covalent allosteric modulators, read-out: β-arrestin activity EC50 (nm)): 9.06 nM; Emax (CB1 receptor [2]; read-out: β-arrestin activity EMax (%)): 106%
9 | O=C(Nc1ccc(Cl)cc1)Oc1cccc(-c2cccc(N3CCCC3)n2)c1 [Compound 31, 3-(6-(Pyrrolidin-1-yl)pyridin-2-yl)phenyl (4-chlorophenyl)carbamate] | 8.8 | > 10000 | 58 | 8660 | –
10 | O=C(Nc1ccc(Cl)cc1)Nc1cccc(-c2cccc(N3CCOCC3)n2)c1 [Compound 67a, 1-(4-Chlorophenyl)-3-(3-(6-morpholinopyridin-2-yl)phenyl)urea] | 88 | 564 | 111 | 124 | –
11 | O=C(Nc1cccc(-c2cccc(N3CCCC3)n2)c1)Nc1ccc2ccccc2c1 [Compound 10x, 1-(Naphthalen-2-yl)-3-(3-(6-(pyrrolidin-1-yl)pyridin-2-yl)phenyl)urea] | 68 | 1830 | 119 | 1910 | –
12 | O=C(Nc1cccc(-c2cccc(N3CCCC3)n2)c1)Nc1ccc(Cl)cc1C#CCCOC1CCCCO1 (stereo not shown) [Compound 21a, 1-(4-Chloro-2-(4-((tetrahydro-2H-pyran-2-yl)oxy)but-1-yn-1-yl)phenyl)-3-(3-(6-(pyrrolidin-1-yl)pyridin-2-yl)phenyl)urea] | 9 | > 10000 | 73 | 3400 | –
13 | Cc1cccc(NC(=O)Nc2cccc(-c3cccc(N4CCCC4)n3)c2)c1 [Compound 10o, 1-(3-(6-(Pyrrolidin-1-yl)pyridin-2-yl)phenyl)-3-(m-tolyl)urea] | 65 | 483 | 125 | 734 | –
14 | O=C(Nc1cccc(-c2cccc(N3CCCC3)n2)c1)Nc1ccc(Cl)c(C#CCCO)c1 [Compound 22b, 1-(4-Chloro-3-(4-hydroxybut-1-yn-1-yl)phenyl)-3-(3-(6-(pyrrolidin-1-yl)pyridin-2-yl)phenyl)urea] | 152 | 551 | 123 | 149 | –
15 | O=C(Nc1ccc(Cl)cc1)Nc1ccccc1-c1cccc(N2CCCC2)n1 [Compound 55, 1-(4-Chlorophenyl)-3-(2-(6-(pyrrolidin-1-yl)pyridin-2-yl)phenyl)urea] | 110 | 3400 | 61 | 5860 | –
